Test results as given in patent publication US5332739A, “Pyrimidinedione derivatives and antiarrhythmic agents containing same” (Mitsui Toatsu Chemicals, Incorporated, priority 1990, dated 1994).
Counter-ions that a name gives are not always drawn.

Experiments:
[1] = Toxicity Test 1 (oral, mortality 24 hours after administration); details: mouse, in vivo, 300 mg/kg (P.O), 2 to 4 mice per group, read-out: Mortality Rate (%)
Procedure: Each of the compounds prepared in the above-mentioned examples shown in Table B was administered into a mouse (ddy strain, male). In each case, the administration was effected by oral administration in a dose of 300 mg/kg.
A mortality rate (number of specimens: one group=2 to 4 mice) of the mice 24 hours after the administration was calculated, and the results are set forth in Table B.

[2] = system: Purkinje fiber of the right ventricular free wall; assay: Influence on Myocardial Action Potential Duration Time (APD75); type: cell-based, hybrid adult dog; details: Canis lupus familiaris, 20 min, 20 minutes' incubation, 1 Hz, 37° C.; for percent prolongation of action potential duration (APD75) at 1 µg/mL: Dose 1.0 (μg, ml); for percent prolongation of action potential duration (APD75) at 3 µg/mL: Dose 3.0 (μg, ml); for percent prolongation of action potential duration (APD75) at 10 µg/mL: Dose 10.0 (μg, ml); for percent prolongation of action potential duration (APD75) at 0.3 µg/mL: Dose 0.3 (μg, ml)
Procedure: To a hybrid adult dog, 30 mg/kg of pentobarbital was administered through a vein, and after being anesthetized, the heart was removed. Afterward, the right ventricular free wall of the heart was cut and taken out in a Tyrode solution.
The taken right ventricular free wall was fixed in an incubator at 37° C., and a nutritional solution (20 ml of the Tyrode solution) was refluxed.
In this isolated condition, myocardial action potential duration times (APD75) were measured before and after the administration of the respective compounds prepared in the above examples in Table A and d-sotalol as a control medicine, and APD75 (%) was calculated from the measured results in accordance with the formula: […]
A: APD75 before administration
B: APD75 after administration
Here, APD75 was measured as follows: A field stimulation of 1 Hz was given to the right ventricular free wall, and any variation of an action potential was depicted on an oscilloscope via a glass microelectrode (10 to 20 M.OMEGA.) thrust into a Purkinje fiber of the free wall and via an amplifier. Afterward, a waveform on the oscilloscope was analyzed by the use of a computer, and the time of from a point of the action potential generation to a point of 75% repolarization was measured. This measured time was regarded as the myocardial action potential duration time (APD75).
The compounds and d-sotalol shown in Table A were separately added to the refluxing nutritional solution (20 ml), and after 20 minutes' incubation, APD75 after the administration was calculated from the variation of the myocardial action potential duration time.
Incidentally, this test was carried out in accordance with a Sato et al's method [H. Sato, K. Hashimoto, Arzneimeittel Forschung, 34 (1), 3a, 376-380 (1984)].

[3] = system: ventricular muscle (right ventricle); assay: Influence on Ventricular Muscle Refractory Period (ERP); type: in vivo, mongrel adult dog; details: Canis lupus familiaris, iv, anesthetized dog, read-out: ERP (%; extensibility of refractory period); for change in vivo at 0.1 mg/kg: Dose 0.1 mg/kg i.v.; for change in vivo at 0.3 mg/kg: Dose 0.3 mg/kg i.v.; for change in vivo at 1 mg/kg: Dose 1.0 mg/kg i.v.; for change in vivo at 3 mg/kg: Dose 3.0 mg/kg i.v.
Procedure: Refractory periods were measured in the following manner before and after each of the compounds and d-sotalol shown an Table A was separately administered to a vein or a duodenum, and ERP (%; extensibility of refractory period) was calculated from the measured values in accordance with the following formula: […]
W: Refractory period after administration
Y: Refractory period before administration
To a mongrel adult dog, 30 mg/kg of pentobarbital was administered intravenously, and after being anesthetized, a pair of silver-silver chloride electrodes separated by 3 mm was sewn on an opened right ventricule, and electrical stimulation was given at an interval of 400 msec at a duration time of 4 msec under a current twice as much as the threshold. Afterward, a small amount of alcohol was injected into a sinus artery in order to extinguish a pacemaker activity, and the ventricular refractory period (ERP) was measured under ventricule pacing.
That is, 1 train comprised 10 stimulations, and an interval between two of the trains was usually 400 msec. At the time of the refractory period measurement, however, the above interval was shortened every 10 smec, and the interval between the trains at the time when reaction to the first stimulation of the train disappeared was regarded as the refractory period.
In this case, the electrical stimulation was fed in accordance with a program by a heart stimulation device (Diamedical Co., Ltd.; DHM-226-3).

SMILES	mortality at 24 h [1]	percent prolongation of action potential duration (APD75) at 1 µg/mL [2]	percent prolongation of action potential duration (APD75) at 3 µg/mL [2]	change in vivo at 0.1 mg/kg [3]	change in vivo at 0.3 mg/kg [3]	change in vivo at 1 mg/kg [3]	change in vivo at 3 mg/kg [3]	percent prolongation of action potential duration (APD75) at 10 µg/mL [2]	percent prolongation of action potential duration (APD75) at 0.3 µg/mL [2]
Cn1c(N2CCN(CCCOc3ccc(C(F)(F)F)cc3)CC2)cc(=O)n(C)c1=O [Compound 2]	50%								
CC(=O)c1ccc(OCCCN2CCN(c3cc(=O)n(C)c(=O)n3C)CC2)cc1 [Compound 4]	0%	5%	8%						
Cn1c(N2CCN(CCCOc3ccc(-n4cncn4)cc3)CC2)cc(=O)n(C)c1=O [Compound 6]	0%	5%	10%	0%	0%	0%	6.2%	25%	
Cn1c(N2CCN(CCCOc3ccc(S(C)(=O)=O)cc3)CC2)cc(=O)n(C)c1=O [Compound 7]	0%								
COC(=O)c1ccccc1OCCCN1CCN(c2cc(=O)n(C)c(=O)n2C)CC1 [Compound 21]	0%	11%	23%	7.1%	7.1%	7.1%	14.3%	26%	
CC(=O)c1cc(Cl)ccc1OCCCN1CCN(c2cc(=O)n(C)c(=O)n2C)CC1 [Compound 45]	50%	42%	71%	0%	2.4%	9.5%	18.6%	75%	
Cn1c(N2CCN(CCCOc3ccc(Cl)cc3)CC2)cc(=O)n(C)c1=O [Compound 64, 6-[4-(3-[4-chlorophenoxy]propyl)piperazin-1-yl]-1,3-dimethyl-2,4(1H,3H)-pyrimidinedione.hydrochloride]	0%	14%	25%	2%	6.3%	13%	24.3%		7%
Cn1c(N2CCN(CCCOc3ccccc3N)CC2)cc(=O)n(C)c1=O [Compound 69]	0%		24%	0%	6.3%	12.5%		34%	
Cn1c(N2CCN(CCCCOc3ccc(Cl)cc3)CC2)cc(=O)n(C)c1=O [Compound 82, 6-[4-(4-[4-chlorophenoxy]butyl)piperazin-1-yl]-1,3-dimethyl-2,4(1H,3H)-pyrimidinedione.hydrochloride]	0%	16%	28%					43%	
CC(=O)c1ccccc1CCN1CCN(c2cc(=O)n(C)c(=O)n2C)CC1 [Compound 85, 1,3-dimethyl-6-[4-(2-[2-acetylphenyl]ethyl)piperazin-1-yl]-2,4(1H,3H)-pyrimidinedione.oxalate]	0%								
Cn1c(N2CCN(CCc3ccc(Cl)cc3)CC2)cc(=O)n(C)c1=O [Compound 91, 1,3-dimethyl-6-[4-(2-[4-chlorophenyl]-ethyl)piperazin-1-yl]-2,4(1H,3H)-pyrimidinedione.hydrochloride]		13%	25%	3.5%	6.5%	14.5%			
CSc1ccc(OCCCN2CCN(c3cc(=O)n(C)c(=O)n3C)CC2)cc1 [Compound 98, 1,3-dimethyl-6-[4-(3-[4-methylthiophenoxy]propyl)piperazin-1-yl]-2,4 (1H,3H)-pyrimidinedione.hydrochloride]		4%	13%	0%	0%	7.7%	15.4%	25%	
Cn1c(N2CCN(CCCOc3ccc(NS(C)(=O)=O)cc3Cl)CC2)cc(=O)n(C)c1=O [Compound 111, 1,3-dimethyl-6-[4-(3-[2-chloro-4-methanesulfonamidophenoxy]propyl)piperazin-1-yl]-2,4(1H,3H)-pyrimidinedione.hydrochloride]			19%	0%	2.4%	8.6%	15.2%	36%	
CSc1ccc(OCCCN2CCN(c3cc(=O)n(C)c(=O)n3C)CC2)c(NS(C)(=O)=O)c1 [Compound 113, 1,3-dimethyl-6-[4-(3-[4-methylmercapto-2-methanesulfonamidophenoxy]propyl)piperazin-1-yl]-2,4(1H,3H)-pyrimidinedione.hydrochloride]		2%	17%	0%	0%		17.6%	26%	
CCN(CCCOc1ccc(C(=O)c2ccccc2)cc1)CCNc1cc(=O)n(C)c(=O)n1C [Compound 117, 1,3-dimethyl-6-[2-(N-ethyl-3-[4-benzoylphenoxy]propylamino)ethylamino]-2,4(1H,3H)-pyrimidinedione.oxalate]		17%	23%	3.2%	3.2%	6.9%	16.1%		
CC(C)NC[C@@H](O)c1ccc(NS(C)(=O)=O)cc1 [d-sotalol, reference compound]		3%	7.4%	1.7%	6.7%	8.7%	15.5%	15.8%	0%
